Measured values reported in PMC5571359, “Screening the Medicines for Malaria Venture Pathogen Box across Multiple Pathogens Reclassifies Starting Points for Open-Source Drug Discovery” (Antimicrobial Agents and Chemotherapy, 2017).
Where two headings read alike, the source gives them in different places.

Assays:
[1] = test system: T. b. brucei 427 bloodstream trypanosomes; assay: T. b. brucei resazurin viability assay; type: cell-based, Trypanosoma brucei brucei
[2] = test system: P. falciparum ABS; details: cited from earlier work; for EC50: ChEMBL Data; for IC50: read-out: Pf 3D7 Pbox IC50
[3] = test system: liver stage; details: cited from earlier work
[4] = test system: HepG2; details: cited from earlier work
[5] = test system: HEK293 cells; assay: HEK293 resazurin cell cytotoxicity assay; details: Homo sapiens
[6] = test system: T. cruzi C4 β-galactosidase reporter parasite in MRC 5SV2 host cells; details: ref Pbox supporting information; read-out: T. cruzi Pbox IC50; cited from earlier work
[7] = test system: T. brucei brucei; details: ref Pbox supporting information; read-out: T.b. brucei Pbox IC50; cited from earlier work
[8] = test system: T. brucei rhodesiense; details: ref Pbox supporting information; read-out: T .b. rohdensie Pbox IC50; cited from earlier work
[9] = test system: L. infanium (macrophages); set-up: method as in Pbox supporting information; details: ref Pbox supporting information; cited from earlier work
[10] = P. falciparum, read-out: TCMDC (ref 93) EX50
[11] = P. falciparum 3D7, ref PBox supporting information
[12] = ref Pbox supporting information
[13] = read-out: HepG2 PBox CC50 µM, ref PBox supporting information
[14] = HEK293, read-out: HEK % Inhibition 20uM/IC50 Discovery Biology (IA)
[15] = Trypanosoma brucei; read-out: T b.brucei Discovery Biology IC50
[16] = HEK293, read-out: HEK % Inhibition 20uM/IC50 Discovery Biology
[17] = ref PBox supporting information
[18] = NITD, read-out: NITD (ref 94) EC50
[19] = TCMDC, read-out: TCMDC (ref 93) EX50
[20] = Pf 3D7, ref Pathogen Box supporting information
[21] = liver stage, ref Pathogen Box supporting information, read-out: LIVER STAGE Pbox IC50
[22] = read-out: HepG2 PBox CC50 µM, HepG2 CC50, ref Pathogen Box supporting information

Row | Structure (SMILES) | IC50 [6] [µM] | IC50 [7] [µM] | IC50 [8] [µM] | IC50 [9] [µM] | EC50 [2, 19] [µM] | IC50 [2, 20] [µM] | IC50 [3, 21] [µM] | CC50 [4, 22] [µM] | also measured
1 | OCCc1ccc(Nc2nccc(-c3nnc4ccccn34)n2)cc1 [MMV028694] | – | – | – | – | – | – | – | – | IC50 ([1]; Trypanosoma brucei; PBox compounds; read-out: IC50 T. brucei brucei (Discovery Biology)): 2.39 µM; EC50 [2, 10]: 0.9 µM; IC50 [2, 11]: 1.08 µM; IC50 [3, 12]: 1.47 µM; CC50 [4, 13]: 8.1 µM; IC50 [5, 14]: > 20 µM
2 | Clc1cccc(C(c2ccc(CN3CCNCC3)cc2)n2ccnc2)c1 (centres unmarked) [MMV663250] | – | – | – | – | – | – | – | – | IC50 [2, 11]: 1.63 µM; IC50 [3, 12]: > 10 µM; CC50 [4, 13]: > 10 µM; IC50 [5, 14]: > 20 µM
3 | Cc1nn2c(O)c3c(nc2c1-c1ccc(F)cc1)CCCC3 [MMV099637] | 2.21 | 1.94 | 0.48 | 50.4 | – | – | – | – | IC50 [1, 15]: 4.43 µM; IC50 [5, 16]: > 20 µM
4 | CC1=Nc2ccc(Cl)cc2C(c2ccccc2)N1CCNC(=O)CN(C)C (centres unmarked) [MMV688410] | 17.1 | 3.78 | 3.11 | 10.1 | – | – | – | – | HepG2 PBox CC20 [4, 17]: 16.4 µM
5 | CS(=O)(=O)c1ccccc1C(=O)N(Cc1ccccc1)c1ccccc1 [MMV688798] | 35.4 | 0.56 | 0.4 | > 64 | – | – | – | – | IC50 [1, 15]: 0.5 µM; IC50 [5, 16]: > 20 µM
6 | COc1ccc(C2=NN(C3CCCCCC3)C(=O)[C@@H]3CC=CC[C@H]23)cc1OCCCCOc1ccc(-c2nn[nH]n2)cc1 [MMV690027] | – | 0.02 | – | – | – | – | – | – | IC50 ([1]; Trypanosoma brucei, read-out: T b.brucei Discovery Biology IC50): 0.5 µM; IC50 [5, 16]: > 20 µM
7 | COc1cc(C2=NCCN2)ccc1-c1cn(-c2cccc(C3=NCCN3)c2)nn1 [MMV688407] | 25 | > 32 | 3.72 | > 32 | – | – | – | – | HepG2 PBox CC20 [4, 17]: 22.9 µM
8 | COc1cc(C2=NCCN2)ccc1-n1cc(-c2cccc(C3=NCCN3)c2)nn1 [MMV688474] | > 32 | > 32 | 3.81 | > 32 | – | – | – | – | HepG2 PBox CC20 [4, 17]: >80 µM
9 | CCOc1ccc(-c2nc(NC(=O)CS(=O)(=O)c3ccccc3)sc2C)cc1 [MMV007638] | – | – | – | – | 0.51 | 0.66 | > 10 | > 10 | EC50 [2, 18]: 0.53 µM
10 | Clc1ccc(CN2CCN(C3=NCCN3)CC2)cc1Cl [MMV689060] | 6.57 | 31.6 | 30.1 | > 64 | – | – | – | – | –
11 | Cc1cc(C(=O)Nc2cnn(Cc3ccc(Cl)cc3Cl)c2)no1 [MMV009054] | – | – | – | – | – | 1.88 | 1.39 | > 10 | EC50 [2, 18]: 0.62 µM
12 | CN(C)CCNC(=O)N1CCCN(c2ncnc3cc(-c4ccccc4)sc23)CC1 [MMV024195] | – | – | – | – | 0.79 | 1.58 | 1.97 | > 10 | –
13 | Cc1cc(C(=O)Nc2ccc(-c3ccccc3)cc2)no1 [MMV020152] | – | – | – | – | 0.69 | 0.82 | > 10 | > 10 | –
14 | C[C@]1(O)C[C@@H](c2nc(-c3ccc4ccc(-c5ccccc5)nc4c3)c3c(N)nccn32)C1 [MMV676605] | – | – | – | – | – | – | – | – | IC50 [2, 11]: > 2 µM; IC50 [3, 12]: 0.36 µM; CC50 [4]: > 10 µM
15 | Cc1ccc(S(=O)(=O)N2CCN(C(=O)c3cc(-c4ccccc4)n[nH]3)CC2)cc1 [MMV019742] | – | – | – | – | 0.6 | 1.04 | 0.63 | > 10 | –
16 | Cc1nnc(NC(=O)c2cn(-c3ccccc3)nc2-c2ccccc2C)o1 [MMV020320] | – | – | – | – | 0.57 | 0.71 | 0.17 | > 10 | –
17 | O=C(NC1CC1)c1ccc(N2CCOc3ccc(Cl)cc32)s1 [MMV020537] | – | – | – | – | 0.8 | 1.03 | 3.48 | > 10 | –

Row | Structure (SMILES) | IC50 [6] [µM] | IC50 [7] [µM] | IC50 [8] [µM] | IC50 [9] [µM] | EC50 [2, 19] [µM] | IC50 [2, 20] [µM] | IC50 [3, 21] [µM] | CC50 [4, 22] [µM] | also measured
18 | CN1CCCN(C(c2ccccc2)c2ccc(Cl)cc2)CC1 (centres unmarked) [MMV004168] | 9.44 | 4.64 | 1.94 | 36.3 | – | – | – | – | –
19 | c1cc(C2=NCCN2)cc(-c2cc(-c3ccc(C4=NCCN4)cc3)no2)c1 [MMV688361] | > 32 | 5.63 | 3 | > 32 | – | – | – | – | HepG2 PBox CC20 [4, 17]: 4.5 µM
20 | NCC(=O)N1CCn2c(nc(-c3ccccc3)c2Nc2ccc3c(c2)OCO3)C1 [MMV011691] | – | – | – | – | – | 0.64 | 3.78 | – | EC50 [2, 18]: 0.16 µM; CC50 [4]: > 10 µM
21 | Cc1cccc(NC(=O)c2cc(S(=O)(=O)N(C)c3ccc(F)cc3)ccc2Cl)n1 [MMV676528] | – | – | – | – | – | – | – | – | IC50 [2, 11]: 1.58 µM; IC50 [3, 12]: 6.77 µM; CC50 [4, 13]: > 10 µM
22 | CCOC(=O)c1noc(N)c1-c1ccccc1 [MMV1236379] | > 64 | 1.22 | 0.46 | > 64 | – | – | – | – | –
23 | CNC(=O)C1Cc2c([nH]c3cc(Cl)ccc23)C2(CCN(CCc3ccccc3)CC2)N1 (centres unmarked) [MMV031011] | – | – | – | – | – | – | – | – | EC50 [2, 10]: 0.93 µM; IC50 [2, 11]: 0.86 µM; IC50 [3, 12]: 4.51 µM; CC50 [4, 13]: > 10 µM; IC50 [5, 14]: > 20 µM
24 | Cc1ccc(S(=O)(=O)n2cc(-c3ccnc(N)c3)c3cc(Br)cnc32)cc1 [MMV024114] | – | – | – | – | 0.9 | 0.63 | > 6 | > 6 | inhibition at 20 µM [5, 16]: 60%
25 | c1ccc(Oc2ccc(-c3cc(C4CCOCC4)[nH]n3)cc2)cc1 [MMV687762] | 16.4 | 7.58 | 3.77 | > 32 | – | – | – | – | IC50 [1, 15]: 1.79 µM; HepG2 PBox CC20 [4, 17]: 10.8 µM
26 | COc1ccc(C2=NN(C3CCCCCC3)C(=O)C2(C)C)cc1OCCCCOc1ccc(-c2nn[nH]n2)cc1 [MMV690028] | – | 0.79 | – | – | – | – | – | – | IC50 [1, 15]: 2.25 µM; IC50 [5, 16]: > 20 µM
27 | O=C(NC1CC1)c1ccc(N2CCC(Cc3ccccc3)CC2)nc1 [MMV024397] | – | – | – | – | 0.76 | 1.33 | 1.41 | > 10 | –
28 | COc1cncc(-c2cncc(N3CCN(c4ccncc4)CC3)n2)c1 [MMV085071] | – | – | – | – | – | – | – | – | EC50 ([2]; P. falciparum, read-out: NITD (ref 94) EC50): 0.08 µM; IC50 [2, 11]: 0.1 µM; IC50 [3, 12]: > 7.5 µM; CC50 [4, 13]: > 10 µM
29 | CC(=O)Nc1ccc(-c2noc(CC3CCCN(Cc4cccc(F)c4C)C3)n2)cc1 (centres unmarked) [MMV689061] | 2.8 | 32.3 | 25.1 | 1.59 | – | – | – | – | –
30 | FC(F)(F)c1cccc(-c2nc3c(NCc4ccncc4)nccc3[nH]2)c1 [MMV032967] | – | – | – | – | – | – | – | – | IC50 [2, 11]: 0.51 µM; IC50 [3, 12]: > 10 µM; CC50 [4, 13]: > 10 µM
31 | CC(C)C(NC(=O)Cc1cccc2ccccc12)C(=O)Nc1cccc(C#N)c1 (centres unmarked) [MMV020591] | – | – | – | – | 0.66 | 0.96 | 9.15 | > 10 | –
32 | CC1CC1C(=O)NC1CCN(CC2(c3ccccc3)CCCCC2)CC1 (centres unmarked) [MMV020120] | – | – | – | – | 0.64 | 0.58 | 2.25 | > 10 | –
33 | Nc1nccc2ccc(Oc3ccncc3)cc12 [MMV026313] | – | – | – | – | – | – | – | – | EC50 [2, 10]: 0.48 µM; IC50 [2, 11]: 0.23 µM; IC50 [3, 12]: > 10 µM; CC50 [4, 13]: > 10 µM
34 | Cc1nc(-c2cccc(NCc3ccccc3)c2)[nH]c1C [MMV023227] | – | – | – | – | 0.86 | 1.94 | 4.59 | > 10 | –
